Measurements published in the NIST ThermoML archive (doi:10.1016/j.fluid.2009.11.004).
Numbers after ± are expanded uncertainties. Values belong to the compound of their own block, whether it stands above or below them.

What was measured:
[1] = Liquid, Ebulliometric method (Recirculating still)
[2] = refractive index (Na D-line) (dimensionless); conditions: 298.15 K; 101.33 kPa; Liquid; Standard Abbe refractometry

SMILES: CCCC(C)C [2-methylpentane]
- refractive index [2]: 1.3685 ± 0.0007
- vapor or sublimation pressure ([1]; 290.34 K): 20.3 ± 0.4 kPa
- vapor or sublimation pressure ([1]; 299.7 K): 30.13 ± 0.42 kPa
- vapor or sublimation pressure ([1]; 307.12 K): 40.39 ± 0.46 kPa
- vapor or sublimation pressure ([1]; 312.92 K): 50.23 ± 0.5 kPa
- vapor or sublimation pressure ([1]; 317.93 K): 60.24 ± 0.54 kPa
- vapor or sublimation pressure ([1]; 322.26 K): 70.13 ± 0.59 kPa
- vapor or sublimation pressure ([1]; 326.15 K): 80.11 ± 0.64 kPa
- vapor or sublimation pressure ([1]; 329.74 K): 90.32 ± 0.69 kPa
- vapor or sublimation pressure ([1]; 333.37 K): 101.76 ± 0.72 kPa

SMILES: CCCCCC [hexane]
- refractive index [2]: 1.3724 ± 0.0007

SMILES: Cc1ccsc1 [3-methylthiophene]
- refractive index [2]: 1.5172 ± 0.0007

SMILES: Cc1ccccc1C [1,2-dimethylbenzene]
- refractive index [2]: 1.5028 ± 0.0007

Next, values leading:

- vapor or sublimation pressure ([1]; 325.39 K): 20.25 ± 0.39 kPa
- vapor or sublimation pressure ([1]; 336.27 K): 30.47 ± 0.4 kPa
- vapor or sublimation pressure ([1]; 344.1 K): 40.07 ± 0.43 kPa
- vapor or sublimation pressure ([1]; 350.71 K): 49.96 ± 0.47 kPa
- vapor or sublimation pressure ([1]; 356.44 K): 60.05 ± 0.51 kPa
- vapor or sublimation pressure ([1]; 361.45 K): 70.17 ± 0.55 kPa
- vapor or sublimation pressure ([1]; 365.75 K): 79.96 ± 0.59 kPa
- vapor or sublimation pressure ([1]; 369.98 K): 90.64 ± 0.63 kPa
- vapor or sublimation pressure ([1]; 373.9 K): 101.6 ± 0.65 kPa
SMILES: CC1CCCCC1 [methylcyclohexane]

- refractive index [2]: 1.4067 ± 0.0007
- vapor or sublimation pressure ([1]; 300.4 K): 20.25 ± 0.4 kPa
- vapor or sublimation pressure ([1]; 310.16 K): 30.18 ± 0.41 kPa
- vapor or sublimation pressure ([1]; 317.69 K): 40.24 ± 0.45 kPa
- vapor or sublimation pressure ([1]; 323.75 K): 50.16 ± 0.49 kPa
- vapor or sublimation pressure ([1]; 328.97 K): 60.22 ± 0.53 kPa
- vapor or sublimation pressure ([1]; 333.37 K): 69.94 ± 0.58 kPa
- vapor or sublimation pressure ([1]; 337.5 K): 80.18 ± 0.62 kPa
- vapor or sublimation pressure ([1]; 341.25 K): 90.53 ± 0.68 kPa
- vapor or sublimation pressure ([1]; 345.1 K): 102.31 ± 0.7 kPa
SMILES: CC1CCCC1 [methylcyclopentane]
